In patent publication US20230392116A1, “METHOD FOR DIFFERENTIATING CORNEAL ENDOTHELIAL CELL-LIKE CELLS FROM PLURIPOTENT STEM CELLS” (StemSight Oy, priority 2020, published 2023):

Test system: human pluripotent stem cells (hPSC)
Assay: Differentiation of human pluripotent stem cells (hPSC) into corneal endothelial cell (CEC)-like cells
Assay type: cell-based
Settings: for emergence of NCC markers: SB431542 and CHIR99021 as differentiation induction agents; for time at which NCC markers appeared: culture medium with about 10 μM SB431542 and about 4 μM CHIR99021 together
Method: Embryonic (hESC) and induced pluripotent stem cells (iPSC) were used to generate CECs. Briefly, hPSCs were seeded on Laminin 521 (Biolamina) coated CellBind 6/12 well-plates (Corning) in 10 000-60 000 cell/cm 2 cell density. The cells were cultured in Essential 8 Flex medium (Thermo Fisher) for 24h. On day 1, Essential 8 flex medium was replaced with an induction medium supplemented with 10 μM SB431542 (Stemcell), 4 μM CHIR99021 (Stemcell) and 10 μM retinoic acid (RA, Sigma-Aldrich). Base of the induction medium consisted of KO-DMEM, 15% Knock-out serum replacement, 2 mM GlutaMax-I, 0.1 mM 2-mercaptoethanol (all from Thermo Fisher), 1% Non-essential Amino Acids, 50 U/ml Penicillin/Streptomycin. […] After day 9, CEC-like cells were formed, and harvested for analyses.
The hPSC-derived CECs were analyzed by immunocytochemistry. Briefly, the cells were fixed with 1 or 4% paraformaldehyde (PFA, Sigma-Aldrich) for 15 minutes. Next, the cells were permeabilized for 10 minutes with 0.1% Triton X-100 (Sigma-Aldrich) followed by blocking with 3% bovine serum albumin (BSA) for 1 hour. Then the cells were first incubated with 1:400 zona occludens-1 (ZO-1; Thermo Fisher), 1:200 alpha 1 sodium potassium ATPase (Na+/K+-ATPase, Abcam) and 1:400 CD166 (BD Biosciences) primary antibodies overnight at 4° C. The cells were next treated with 1:800 Donkey anti-Rabbit IgG Secondary Antibody, Alexa Fluor 488 (Thermo Fisher) against ZO-1; 1:800 Donkey anti-Mouse IgG Secondary Antibody, Alexa Fluor 568 (Thermo Fisher) against Na+/K+-ATPase and CD166; and 1:800 Donkey anti-Goat IgG Secondary Antibody, Alexa Fluor 568 (Thermo Fisher) against OCT-3/4. […] The images of mounted cells were captured using a fluorescence microscope (Olympus IX51; Olympus, Tokyo, Japan) and prepared using image editing software (Adobe Photoshop CC 2018; Adobe Systems) […]
Total RNA was extracted from undifferentiated hPSCs (d0), and from 3 time points during the time of hCEC induction (d3, d6 and d9) with Rneasy Minikit Plus (Qiagen). RNA concentration of each sample was determined using NanoDrop-1000 spectrophotometer (NanoDrop Technologies). […] The resulting cDNA samples were analyzed with qPCR using sequence-specific TaqMan Gene Expression Assays (Thermo Fisher) for OCT4 (Hs00999632_g1), PITX2 (Hs01553179_m1), AQP1 (Hs01028916_m1), SLC4A4 (Hs00186798_m1), and FOXC1 (Hs00559473_s1). […] Results were analyzed with the 7300 System SDS Software (Applied Biosystems) and Microsoft Excel. Based on the cycle threshold (CT) values given by the software, the relative quantification of each gene was calculated by applying the […] (Livak and Schmittgen, 2001). Results were normalized to GAPDH (Hs99999905_m1), with the undifferentiated hPSCs as the calibrator to determine the relative quantities of gene expression in each sample.

| Structure (SMILES) | emergence of NCC markers | time at which NCC markers appeared [days] |
| --- | --- | --- |
| Cc1c[nH]c(-c2cnc(NCCNc3ccc(C#N)cn3)nc2-c2ccc(Cl)cc2Cl)n1 [CHIR99021] | contributed to emergence of NCC markers | ~3 |
| NC(=O)c1ccc(-c2nc(-c3ccc4c(c3)OCO4)c(-c3ccccn3)[nH]2)cc1 [SB431542, 4-[4-(1,3-Benzodioxol-5-yl)-5-(2-pyridinyl)-1H-imidazol-2-yl]-benzamide] | contributed to emergence of NCC markers | ~3 |
